Reference: patent publication US20250144067A1, “PERSONALIZED STARVATION THERAPY FOR CANCER” (Faeth Therapeutics, Inc., priority 2021, published 2025)
Counter-ions that a name gives are not always drawn.

Key:
[1] = system: NCI-H292 lung cancer cells; assay: FDA drug screening, complete media vs cholesterol-free media with simvastatin (TABLE 2); assay type: cell-based, human; details: for Cholesterol-free media + simvastatin (0.04 μM) / Complete Media: NCI-H292 cells
[2] = system: NCI-H292 lung cancer cells; assay: FDA drug screening, complete media vs cholesterol-free media without statin (TABLE 1); assay type: cell-based, human
[3] = FDA drug library screen, cholesterol-free media with simvastatin 0.04 μM
[4] = FDA drug library screen, complete media
[5] = complete media vs cholesterol-free media + simvastatin (0.04 μM), […]
[6] = NCI-H292 cells, cholesterol-free media without statin, FDA drug library screen
[7] = NCI-H292 cells, complete media, FDA drug library screen
[8] = complete vs cholesterol-free media, […]
[9] = FDA library drug in cholesterol-free media with simvastatin 0.04 μM
[10] = FDA library drug in complete media
[11] = complete media vs cholesterol-free media + simvastatin (0.04 μM), >0 enhanced anti-cancer activity, about 0 neutral, <0 antagonist
[12] = Complete minus Cholesterol-free, >0 enhanced anti-cancer activity, about 0 neutral, <0 antagonist
[13] = cholesterol-free media with simvastatin 0.04 μM, FDA drug library screen (TABLE 2)
[14] = complete media, FDA drug library screen (TABLE 2)
[15] = complete media minus cholesterol-free media + simvastatin (0.04 μM), >0 enhanced anti-cancer activity, about 0 neutral, <0 antagonist
[16] = complete media minus cholesterol-free media + simvastatin, […]
[17] = Complete minus Cholesterol-free, […]
[18] = NCI-H292 cells, FDA drug library screen, cholesterol-free media without statin
[19] = NCI-H292 cells, FDA drug library screen, complete media
[20] = NCI-H292 cells, cholesterol-free media without statin
[21] = complete media minus cholesterol-free media + simvastatin, >0 enhanced anti-cancer activity, about 0 neutral, <0 antagonist
[22] = complete vs cholesterol-free media, >0 enhanced anti-cancer activity, about 0 neutral, <0 antagonist
[23] = Complete minus Cholesterol-free, greater than 0 enhanced anti-cancer activity, about 0 neutral, below 0 antagonists
[24] = NCI-H292 cells in cholesterol-free media without statin
[25] = NCI-H292 cells in complete media
[26] = drug in cholesterol-free media with simvastatin 0.04 μM

CCOc1ccccc1OC(c1ccccc1)C1CNCCO1.CS(=O)(=O)O (stereo not shown) [Reboxetine (mesylate)]
Cholesterol-free media + simvastatin (0.04 μM) [1, 3]: 0.8624
Complete Media [1, 4]: 0.7048
Difference [1, 5]: −0.16
Cholesterol-free [2, 6]: 1.105
Complete [2, 7]: 1.321
Difference [2, 8]: 0.22

CC(C)NC[C@@H](O)COc1ccc(CC(N)=O)cc1 [(R)-(+)-Atenolol]
Cholesterol-free media + simvastatin (0.04 μM) [1, 9]: 1.166
Complete Media [1, 10]: 0.872
Difference [1, 11]: −0.29
Difference [2, 12]: 0.07
Cholesterol-free [2, 6]: 0.8467
Complete [2, 7]: 0.9214

CCCCCCCCN=c1ccn(CCCCCCCCCCn2ccc(=NCCCCCCCC)cc2)cc1 [Octenidine (dihydrochloride)]
Cholesterol-free media + simvastatin (0.04 μM) [1, 13]: −0.0001133
Complete Media [1, 14]: −0.0003925
Difference [1, 15]: 0.00
Difference [2, 12]: 0.01
Cholesterol-free [2, 6]: 0.00456
Complete [2, 7]: 0.01483

c1ccc2c(c1)Nc1ccccc1S2 [Phenothiazine]
Cholesterol-free media + simvastatin (0.04 μM) ([1]; cholesterol-free media with simvastatin 0.04 μM, […]): 1.18
Complete Media ([1]; complete media, […]): 1.261
Difference [1, 16]: 0.08
Difference [2, 17]: −0.11
Cholesterol-free [2, 18]: 1.108
Complete [2, 19]: 1.002

Cn1c(=O)c2[nH]cnc2n(C)c1=O [Choline theophyllinate]
Cholesterol-free media + simvastatin (0.04 μM) [1, 3]: 1.275
Difference [1, 11]: −0.10
Difference [2, 12]: −0.20
Cholesterol-free [2, 20]: 1.108
Complete ([2]; NCI-H292 cells, complete media): 0.9038

C/C1=C2/[N-][C@H]([C@H](CC(N)=O)[C@@]2(C)CCC(=O)NC[C@@H](C)OP(=O)([O-])O[C@H]2[C@@H](O)[C@@H](n3cnc4cc(C)c(C)cc43)O[C@@H]2CO)[C@]2(C)N=C(/C(C)=C3N=C(/C=C4N=C1[C@@H](CCC(N)=O)C\4(C)C)[C@@H](CCC(N)=O)[C@]\3(C)CC(N)=O)[C@@H](CCC(N)=O)[C@]2(C)CC(N)=O.[CH3-].[Co+3] [Methylcobalamin]
Cholesterol-free media + simvastatin (0.04 μM) [1, 9]: 1.749
Complete Media [1, 10]: 0.8589
Difference [1, 5]: −0.89
Difference [2, 17]: −0.18
Cholesterol-free [2, 18]: 1.021
Complete [2, 19]: 0.8435

CC(=O)O[C@@]12CO[C@@H]1C[C@H](O)[C@@]1(C)C(=O)[C@H](O)C3=C(C)[C@@H](OC(=O)[C@H](O)[C@@H](NC(=O)OC(C)(C)C)c4ccccc4)C[C@@](O)([C@@H](OC(=O)c4ccccc4)[C@H]21)C3(C)C [Docetaxel (Trihydrate)]
Cholesterol-free media + simvastatin (0.04 μM) [1, 3]: 0.3708
Complete Media [1, 4]: 0.2794
Difference [1, 11]: −0.09
Difference [2, 12]: −0.05
Cholesterol-free [2, 6]: 0.2507
Complete [2, 7]: 0.2029

CCCCC/C=C\C/C=C\CCCCCCCC(=O)O [Linoleic acid]
Cholesterol-free media + simvastatin (0.04 μM) [1, 3]: 1.399
Complete Media [1, 4]: 1.847
Difference [1, 21]: 0.45
Cholesterol-free [2, 6]: 1.134
Complete [2, 7]: 1.557
Difference [2, 22]: 0.42

O=C(OCc1ccccc1)c1ccccc1 [Benzyl benzoate]
Cholesterol-free media + simvastatin (0.04 μM) [1, 13]: 0.8319
Complete Media [1, 14]: 0.7979
Difference [1, 15]: −0.03
Cholesterol-free [2, 6]: 0.6319
Complete [2, 7]: 1.132
Difference [2, 22]: 0.50

CN(CCCCCCCCCCN(C)C(=O)Oc1cccc([N+](C)(C)C)c1)C(=O)Oc1cccc([N+](C)(C)C)c1 [Demecarium Bromide]
Cholesterol-free media + simvastatin (0.04 μM) [1, 9]: 1.197
Complete Media [1, 10]: 0.9059
Difference [1, 5]: −0.29
Difference [2, 17]: −0.29
Cholesterol-free [2, 20]: 1.112
Complete ([2]; NCI-H292 cells, complete media): 0.8186

CCC(=O)O[C@]1(C(=O)SCF)[C@H](C)C[C@H]2[C@@H]3C[C@H](F)C4=CC(=O)C=C[C@]4(C)[C@@]3(F)[C@@H](O)C[C@@]21C [Fluticasone (propionate)]
Cholesterol-free media + simvastatin (0.04 μM) [1, 3]: 0.7423
Complete Media [1, 4]: 0.6072
Difference [1, 11]: −0.14
Difference [2, 23]: −0.60
Cholesterol-free [2, 24]: 1.466
Complete [2, 25]: 0.8611

CCCCN(CCCC)CC(O)c1cc(Cl)cc2c1-c1ccc(Cl)cc1/C2=C/c1ccc(Cl)cc1 (stereo not shown) [Lumefantrine]
Cholesterol-free media + simvastatin (0.04 μM) ([1]; cholesterol-free media with simvastatin 0.04 μM, cell growth value in FDA drug screen): 0.8537
Complete Media ([1]; complete media, cell growth value in FDA drug screen): 0.9184
Difference [1, 21]: 0.06
Cholesterol-free [2, 6]: 0.9552
Difference [2, 22]: 0.22

NC(=O)NO [Hydroxyurea]
Cholesterol-free media + simvastatin (0.04 μM) [1, 9]: 1.418
Complete Media [1, 10]: 1.131
Difference [1, 11]: −0.29
Difference [2, 23]: −0.79
Cholesterol-free [2, 24]: 1.72
Complete [2, 25]: 0.9327

C=C1CC[C@@H]2[C@](C)(COC(=O)CCC(=O)[O-])[C@H](OC(=O)CCC(=O)O)CC[C@@]2(C)[C@@H]1/C=C/C1=CCOC1=O.[K+] [Kalii Dehydrographolidi Succinas]
Cholesterol-free media + simvastatin (0.04 μM) [1, 3]: 0.8904
Complete Media [1, 4]: 1.183
Difference [1, 16]: 0.29
Cholesterol-free [2, 20]: 1.388
Complete ([2]; NCI-H292 cells, complete media): 1.081
Difference [2, 8]: −0.31

CN(C)[C@@H]1C(O)=C(C(N)=O)C(=O)[C@@]2(O)C(O)=C3C(=O)c4c(O)cccc4[C@@](C)(O)[C@H]3[C@H](O)[C@@H]12 [Oxytetracycline (hydrochloride)]
Cholesterol-free media + simvastatin (0.04 μM) [1, 13]: 0.991
Complete Media [1, 14]: 0.9652
Difference [1, 15]: −0.03
Difference [2, 23]: −0.72
Cholesterol-free [2, 24]: 1.728
Complete [2, 25]: 1.007

Fenoldopam (mesylate)
Cholesterol-free media + simvastatin (0.04 μM) [1, 26]: 1.028
Complete Media ([1]; drug in complete media): 0.7708
Difference [1, 11]: −0.26
Difference ([2]; Complete minus Cholesterol-free, greater than 0 enhanced anti-cancer activity, about 0 neutral, below 0 antagonist): −0.12
Cholesterol-free [2, 18]: 0.8131
Complete [2, 19]: 0.6882

COc1cc2nc(N3CCN(C(=O)C4CCCO4)CC3)nc(N)c2cc1OC (stereo not shown) [Terazosin (hydrochloride dihydrate)]
Cholesterol-free media + simvastatin (0.04 μM) [1, 13]: 1.029
Complete Media [1, 14]: 0.9806
Difference [1, 15]: −0.05
Difference [2, 12]: −0.06
Cholesterol-free [2, 6]: 0.8804
Complete [2, 7]: 0.821

(−)-Huperzine A
Cholesterol-free media + simvastatin (0.04 μM) [1, 13]: 1.198
Complete Media [1, 14]: 1.208
Difference ([1]; complete media minus cholesterol-free media + simvastatin (0.04 μM), […]): 0.01
Difference [2, 17]: 0.00
Cholesterol-free [2, 6]: 1.621
Complete [2, 7]: 1.617

CCN(CC)CCOC(=O)C(O)(c1ccccc1)c1ccccc1 [Benactyzine hydrochloride]
Cholesterol-free media + simvastatin (0.04 μM) [1, 26]: 1.159
Complete Media ([1]; drug in complete media): 0.961
Difference [1, 5]: −0.20
Difference [2, 17]: −0.51
Cholesterol-free [2, 24]: 1.39
Complete [2, 25]: 0.878

Gilteritinib hemifumarate
Cholesterol-free media + simvastatin (0.04 μM) [1, 9]: 0.9393
Complete Media [1, 10]: 0.4057
Difference [1, 5]: −0.53
Cholesterol-free [2, 6]: 0.3721
Complete [2, 7]: 0.7198
Difference [2, 8]: 0.35

CCOC(=O)[C@H](CCc1ccccc1)N[C@H]1CCc2ccccc2N(CC(=O)O)C1=O [Benazepril (hydrochloride)]
Cholesterol-free media + simvastatin (0.04 μM) [1, 3]: 1.077
Complete Media [1, 4]: 0.9854
Difference [1, 11]: −0.09
Cholesterol-free [2, 20]: 1.314
Complete ([2]; NCI-H292 cells, complete media): 0.8774
Difference ([2]; complete vs cholesterol-free media, greater than 0 enhanced anti-cancer activity, about 0 neutral, below 0 antagonists): −0.44
